Earlier results on one molecule are cited in patent US6683094B2, “Antihistaminic piperidine derivatives and intermediates for the preparation thereof” (Aventis Pharmaceuticals Inc., priority 1998, dated 2004).

For this data set the following is noted: to two primary metabolites (fexofenadine and an inactive dealkylated metabolite).

On to `CC(C)(C)c1ccc(C(O)CCCN2CCC(C(O)(c3ccccc3)c3ccccc3)CC2)cc1` (stereo not drawn) [Terfenadine, α-[4-(1,1-dimethylethyl)phenyl]-4-(hydroxydiphenylmethyl)-1-piperidinebutanol], for which the first pass metabolism was 99%.
